# Data published in patent publication US20180333415A1, “THERAPEUTIC METHODS” (REGENTS OF THE UNIVERSITY OF MINNESOTA, priority 2017, published 2018).
# pIC50: −log10 of the molar value.
# How the values were obtained:
# CYP2C8 = biological target: T1, CYP2C8 (Homo sapiens, UniProt P10632); experiment: Inhibition of CYP2C8 supersome-mediated EET biosynthesis; assay type: biochemical; details: FIG. 2, read-out: IC50 for inhibition of EET synthesis
# T1 sequence (P10632 1-490): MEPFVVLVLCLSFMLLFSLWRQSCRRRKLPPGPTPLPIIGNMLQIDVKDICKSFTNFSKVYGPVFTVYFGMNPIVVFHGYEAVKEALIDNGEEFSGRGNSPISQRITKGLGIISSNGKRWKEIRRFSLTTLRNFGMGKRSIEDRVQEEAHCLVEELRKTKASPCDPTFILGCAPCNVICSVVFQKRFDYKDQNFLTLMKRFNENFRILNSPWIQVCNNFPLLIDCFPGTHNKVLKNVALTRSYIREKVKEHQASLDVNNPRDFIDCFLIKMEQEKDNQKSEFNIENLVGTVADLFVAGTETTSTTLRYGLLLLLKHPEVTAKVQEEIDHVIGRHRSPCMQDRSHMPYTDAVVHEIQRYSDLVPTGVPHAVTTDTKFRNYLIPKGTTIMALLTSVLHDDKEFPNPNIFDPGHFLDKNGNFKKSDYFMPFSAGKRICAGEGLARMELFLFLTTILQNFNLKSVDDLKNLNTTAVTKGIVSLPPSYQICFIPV
# Method: (§1) Poziotinib was purchased from a commercial source (Selleck Chem catalog number S7358). Assays were conducted using standard techniques that are known in the literature including those described in US Patent Publication U.S. 2015/0342909.
# (§2) Poziotinib was tested for inhibition of proliferation of the MCF-7 (HER2 negative) cell line in complete media. The IC50 for inhibition of growth was determined to be approximately 3 μM (FIG. 1). Poziotinib was tested for inhibition of CYP2C8 supersome-mediated EET biosynthesis. The IC50 for inhibition of EET synthesis was determined to be approximately 10 μM (FIG. 2). Poziotinib was tested for inhibition of CYP3A4 supersome-mediated EET biosynthesis. The IC50 for inhibition of EET synthesis was determined to be approximately 10 µM (FIG. 2).
# EGFR type I kinase = EGFR type I kinase (Homo sapiens, UniProt P00533); details: as described in WO2008/150118; cited from earlier work
# EGFR type I kinase, sequence (P00533 25-1210): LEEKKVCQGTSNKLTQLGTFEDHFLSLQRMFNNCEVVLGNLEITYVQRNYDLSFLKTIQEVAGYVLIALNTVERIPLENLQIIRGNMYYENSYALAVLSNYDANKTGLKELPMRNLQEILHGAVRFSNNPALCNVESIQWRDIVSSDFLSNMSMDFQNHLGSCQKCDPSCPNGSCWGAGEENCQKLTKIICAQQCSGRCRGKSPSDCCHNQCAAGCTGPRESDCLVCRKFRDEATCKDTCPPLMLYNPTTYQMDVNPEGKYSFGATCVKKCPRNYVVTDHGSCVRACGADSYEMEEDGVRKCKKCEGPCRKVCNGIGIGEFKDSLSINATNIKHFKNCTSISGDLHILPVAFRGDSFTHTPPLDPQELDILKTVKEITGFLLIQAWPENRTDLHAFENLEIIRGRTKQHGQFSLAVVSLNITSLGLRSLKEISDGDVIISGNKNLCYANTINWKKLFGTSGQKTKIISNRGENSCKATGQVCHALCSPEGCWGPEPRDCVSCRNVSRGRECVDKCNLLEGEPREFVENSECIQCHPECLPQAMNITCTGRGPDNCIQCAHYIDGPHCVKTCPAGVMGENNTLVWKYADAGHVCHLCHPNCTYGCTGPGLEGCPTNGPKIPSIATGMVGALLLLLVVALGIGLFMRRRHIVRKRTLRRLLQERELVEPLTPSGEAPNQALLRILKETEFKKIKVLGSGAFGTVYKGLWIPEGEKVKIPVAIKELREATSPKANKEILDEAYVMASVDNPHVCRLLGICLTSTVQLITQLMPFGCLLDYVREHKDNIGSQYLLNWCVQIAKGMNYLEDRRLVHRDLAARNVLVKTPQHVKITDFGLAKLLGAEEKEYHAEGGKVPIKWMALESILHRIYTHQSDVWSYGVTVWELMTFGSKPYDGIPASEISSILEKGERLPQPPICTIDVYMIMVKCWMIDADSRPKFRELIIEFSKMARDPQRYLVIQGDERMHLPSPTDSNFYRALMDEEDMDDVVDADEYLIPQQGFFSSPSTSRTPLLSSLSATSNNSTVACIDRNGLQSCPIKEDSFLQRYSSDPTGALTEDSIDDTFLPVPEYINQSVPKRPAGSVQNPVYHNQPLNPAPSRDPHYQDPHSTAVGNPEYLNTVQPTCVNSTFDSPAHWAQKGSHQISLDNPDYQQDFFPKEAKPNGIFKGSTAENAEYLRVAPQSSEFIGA
# MCF7 = experiment: Measurement of OCR and ECAR (XF Extracellular Flux Analyzer); assay type: cell-based; details: MCF7, poziotinib 40 and 80 uM, endpoint A+270 minutes; P=0.0286 (40 uM), P=0.0001 (80 uM); normalized to 6th measurement DMSO control, n=5, FIG. 4
# Method: Cells were maintained in growth medium consisting of 10% FBS at 37° C. with 5% CO2 and seeded at 30,000 cells per well in XF24-well cell culture microplates (Seahorse Bioscience, North Billirica, Ma.). Concentrated stocks of poziotinib were prepared in DMSO. Poziotinib was diluted to 10× working concentration in XF assay medium (a non-buffered medium including 2 mM L-glutamine but no sodium bicarbonate (buffering agent), glucose, or sodium pyruvate). Assays were performed in the XF Extracellular Flux Analyzer (Seahorse Bioscience), which measures uptake and excretion of metabolic end products in real time. Oxygen consumption rate (OCR) and extracellular acidification rate (ECAR) were measured using an XF Assay Kit. OCR is reported in pmoles/minute and ECAR in mpH/minute. Before analysis, the cells were switched from culture medium to XF assay medium. After baseline measurements, 75 μl of poziotinib prepared in assay medium was injected into each well to reach final working concentrations. After addition of poziotinib, OCR and ECAR were measured at 18-minute intervals. There were 5 replicates performed for each data point.
# OCR was reduced by poziotinib vs. DMSO and was significant at the endpoint of A+270 minutes. […] Results are normalized to the 6th measurement DMSO control and expressed as mean ±S.D. (n=5) (FIG. 4).
# [1] = system: MCF-7 (HER2 negative) cell line; experiment: Inhibition of proliferation of MCF-7 cell line in complete media; assay type: cell-based; details: Homo sapiens, MCF7, FIG. 1, read-out: IC50 for inhibition of growth
# Method: as §1, §2
# CYP3A4 = CYP3A4 (Homo sapiens, UniProt P08684); experiment: Inhibition of CYP3A4 supersome-mediated EET biosynthesis; assay type: biochemical; details: CYP3A4 supersomes, read-out: IC50 for inhibition of EET synthesis
# CYP3A4, sequence (P08684 whole entry): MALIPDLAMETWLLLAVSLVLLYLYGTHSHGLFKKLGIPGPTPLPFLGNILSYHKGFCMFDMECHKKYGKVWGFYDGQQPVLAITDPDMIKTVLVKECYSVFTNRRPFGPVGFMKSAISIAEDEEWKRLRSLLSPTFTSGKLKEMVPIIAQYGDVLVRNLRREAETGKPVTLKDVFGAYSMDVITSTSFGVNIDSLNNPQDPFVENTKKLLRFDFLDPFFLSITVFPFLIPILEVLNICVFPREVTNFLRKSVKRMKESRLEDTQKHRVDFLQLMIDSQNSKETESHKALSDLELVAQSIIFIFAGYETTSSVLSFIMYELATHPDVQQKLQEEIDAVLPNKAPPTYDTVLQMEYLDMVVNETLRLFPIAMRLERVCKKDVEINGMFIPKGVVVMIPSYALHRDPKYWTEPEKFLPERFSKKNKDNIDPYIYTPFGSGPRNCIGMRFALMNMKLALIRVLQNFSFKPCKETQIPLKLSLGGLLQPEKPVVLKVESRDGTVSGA
# Method: as §1, §2
# [2] = system: various cancer cell lines including colon/rectal, skin, lung and the breast cancer cell line SK-BR3; details: lung and SK-BR3 (overexpresses HER2) cell lines, WO2008/150118; cited from earlier work
structure (smiles),measurement,setting,value
"C=CC(=O)N1CCC(Oc2cc3c(Nc4ccc(Cl)c(Cl)c4F)ncnc3cc2OC)CC1 [Poziotinib, 1-(4-((4-((3,4-dichloro-2-fluorophenyl)amino)-7-methoxyquinazolin-6-yl)oxy)piperidin-1-yl)prop-2-en-1-one]",pIC50,CYP2C8,~5.00
same,Inhibition of EGFR type I kinase,EGFR type I kinase,inhibit EGFR type I kinase
same,Oxygen consumption rate (OCR) vs. DMSO,MCF7,reduced
same,pIC50,[1],~5.52
same,pIC50,CYP3A4,~5.00
same,Inhibition of cell growth,[2],inhibit cell growth
